Assay results as given in patent US20140329868A1, “METHODS FOR TREATING HYPERTENSION” (TAKEDA PHARMACEUTICALS U.S.A., INC., priority 2005, published 2014).

Assays:
[1] = system: subjects having a systolic BP≧160 mmHg or diastolic BP≧95 mmHg (elevated blood pressure); experiment: Example 3: blood pressure change in subjects with elevated blood pressure, none taking angiotensin antagonists (two double-blind studies); format: in vivo, human
Experimental: None of these subjects were taking any angiotensin antagonists, but might have been taking some other type of antihypertensive drug at the baseline (start) of the study. These 187 subjects were part of two (2) DB studies. One study was of 28 weeks in duration during which subjects received 80 mg, 120 mg or 240 mg QD of febuxostat or placebo or allopurinol 300 or 100 mg QD, depending on the subject's renal function. The second study was of 52 weeks in duration during which subjects received 80 mg or 120 mg QD of febuxostat or allopurinol 300 mg QD. Of these 187 subjects, all completed 4 weeks of treatment and 132 completed 28 weeks of treatment. A total of 52 weeks of treatment was completed by 15 subjects in the febuxostat 80 mg QD group, 11 in the febuxostat 120 mg QD group and 22 in the allopurinol 300/100 mg QD group. Because of the shorter duration of one of the 2 DB studies, no subject in the placebo and febuxostat 240 mg QD groups were treated for 52 weeks.

[2] = Example 4: body weight, food and water intake, side effects in normal and OA-dosed rats; format: in vivo, Sprague-Dawley rats
Experimental: Materials and Methods. To produce hyperuricemia, rats received OA (Sigma, St Louis Mo., USA) 750 mg/kg body weight daily by gastric gavage. To investigate the treatment effect of febuxostat (also referred to herein as “Fx”), the drug was administered in drinking water at 50 mg/L (approximately 5-6 mg/kg/day) four weeks after OA dosing while the respective controls received 5.84 mg/L of NaCl in drinking water (to maintain a salt concentration equivalent to the Febuxostat-containing water). The following four groups (n=10-11) were included in the study: Group 1, normal control rats which received no treatment for eight weeks; Group 2, Normal+Febuxostat rats which received no treatment for four weeks and then were treated with febuxostat for four weeks from Weeks 5 to 8; Group 3, OA rats which received OA for eight weeks; and Group 4, OA+Febuxostat rats which received OA for eight weeks and febuxostat for four weeks from Weeks 5 to 8. Body weight, food and water intakes were measured daily. Systolic blood pressure, obtained in conscious rats by a tail cuff sphygmomanometer, and plasma uric acid were measured in all animals at baseline and at the end of four and eight weeks. A renal micropuncture procedure along with systemic arterial blood pressure monitoring under pentobarbital anesthesia were performed at the end of eight weeks followed by morphologic evaluation of the renal preglomerular microvasculature.
Evaluation. Food and water intake were determined daily. Systolic blood pressure (hereinafter “SBP”) was measured in conscious animals by a tail cuff sphygmomanometer using an automated system (XBP-100, Kent Scientific Co, USA). All animals were preconditioned for blood pressure measurements one week before each experiment. Plasma UA, insulin and triglycerides were quantified using commercial kits (Diagnostic Chemicals Ltd, USA; Crystalchem, USA and Spinreact, Spain, respectively).
Statistical Analysis. Values were expressed as mean±standard error of the mean (hereinafter “SEM”). In the study, values from the respective four treatment groups were analyzed by one-way analysis of variance (hereinafter “ANOVA”). When the ANOVA p value was <0.05, the following comparisons were made using Bonferroni multiple comparison test: Normal Control vs. Normal+Fx, Normal Control vs. OA, Normal Control vs. OA+Fx and OA vs. OA+Fx. Pair wise comparisons were performed using contrast within the framework of the statistical model.

[3] = 80 mg QD, after 4 weeks of treatment
[4] = 80 mg QD, after 28 weeks of treatment
[5] = 80 mg QD, after 52 weeks of treatment
[6] = 120 mg QD, after 4 weeks of treatment
[7] = 120 mg QD, after 28 weeks of treatment
[8] = 120 mg QD, after 52 weeks of treatment
[9] = 240 mg QD, after 4 weeks of treatment
[10] = 240 mg QD, after 28 weeks of treatment
[11] = Normal + Fx rats, End of Week 4 (before Fx)
[12] = Normal + Fx rats, End of Week 8
[13] = Normal + Fx rats, Week 1 (before Fx)
[14] = Normal + Fx rats, Week 4 (before Fx)
[15] = OA + Fx rats, End of Week 4 (before Fx)
[16] = OA + Fx rats, Week 1 (before Fx)
[17] = OA + Fx rats, Week 4 (before Fx)

Cc1nc(-c2ccc(OCC(C)C)c(C#N)c2)sc1C(=O)O [febuxostat, 2-[3-cyano-4-(2-methylpropoxy)phenyl]-4-methylthiazole-5-carboxylic acid]
mean change from baseline for diastolic BP [1, 3]: −3.1 mmHg
mean change from baseline for mean arterial BP [1, 3]: −4.3 mmHg
mean change from baseline for systolic BP [1, 3]: −6.7 mmHg
mean change from baseline for diastolic BP [1, 4]: −7.3 mmHg
mean change from baseline for mean arterial BP [1, 4]: −9.0 mmHg
mean change from baseline for systolic BP [1, 4]: −12.6 mmHg
mean change from baseline for diastolic BP [1, 5]: −8.4 mmHg
mean change from baseline for mean arterial BP [1, 5]: −11.6 mmHg
mean change from baseline for systolic BP [1, 5]: −17.9 mmHg
mean change from baseline for diastolic BP [1, 6]: −7.5 mmHg
mean change from baseline for mean arterial BP [1, 6]: −7.8 mmHg
mean change from baseline for systolic BP [1, 6]: −8.5 mmHg
mean change from baseline for diastolic BP [1, 7]: −8.5 mmHg
mean change from baseline for mean arterial BP [1, 7]: −9.9 mmHg
mean change from baseline for systolic BP [1, 7]: −12.8 mmHg
mean change from baseline for diastolic BP [1, 8]: −7.4 mmHg
mean change from baseline for mean arterial BP [1, 8]: −11.1 mmHg
mean change from baseline for systolic BP [1, 8]: −18.6 mmHg
mean change from baseline for diastolic BP [1, 9]: −9.1 mmHg
mean change from baseline for mean arterial BP [1, 9]: −9.8 mmHg
mean change from baseline for systolic BP [1, 9]: −11.3 mmHg
mean change from baseline for diastolic BP [1, 10]: −4.9 mmHg
mean change from baseline for mean arterial BP [1, 10]: −6.3 mmHg
mean change from baseline for systolic BP [1, 10]: −9.2 mmHg
BW ([2]; Normal + Fx rats, Baseline (Fx 50 mg/L in drinking water Weeks 5 to 8), mean ± SEM): 319.9 ± 3.0 gr
% BW gain from baseline [2, 11]: 11.9 ± 1.8%
BW [2, 11]: 359.3 ± 7.2 gr
% BW gain from Week 4 [2, 12]: 6.6 ± 0.8 %
% BW gain from baseline [2, 12]: 18.7 ± 1.8%
BW [2, 12]: 377.7 ± 7.5 gr
Daily Food intake [2, 13]: 18.3 ± 0.6 gr
Daily Water intake [2, 13]: 34.5 ± 2.4 mL
Daily Food intake [2, 14]: 16.0 ± 0.7 gr
Daily Water intake [2, 14]: 32.3 ± 1.4 mL
Daily Food intake ([2]; Normal + Fx rats, Week 8): 18.0 ± 0.4 gr
Daily Water intake ([2]; Normal + Fx rats, Week 8): 39.7 ± 1.7 mL
BW ([2]; OA + Fx rats, Baseline (Fx 50 mg/L in drinking water Weeks 5 to 8), mean ± SEM): 323.6 ± 3.2 gr
% BW gain from baseline [2, 15]: 6.7 ± 1.7%
BW [2, 15]: 345.3 ± 5.7 gr
% BW gain from Week 4 ([2]; OA + Fx rats, End of Week 8): 5.2 ± 0.7 %
% BW gain from baseline ([2]; OA + Fx rats, End of Week 8): 12.3 ± 1.9%
BW ([2]; OA + Fx rats, End of Week 8): 363.2 ± 5.7 gr
Daily Food intake [2, 16]: 15.1 ± 0.7 gr
Daily Water intake [2, 16]: 36.6 ± 2.2 mL
Daily Food intake [2, 17]: 17.4 ± 0.7 gr
Daily Water intake [2, 17]: 33.8 ± 2.4 mL
Daily Food intake ([2]; OA + Fx rats, Week 8): 18.6 ± 0.4 gr
Daily Water intake ([2]; OA + Fx rats, Week 8): 42.6 ± 2.3 mL
behaviour and side effects ([2]; all rats, eight-week study): no side effects were observed
